Assays:
Progesterone receptor = biological target: T1, Progesterone receptor (Homo sapiens, UniProt P06401); experiment: Antagonist activity at progesterone receptor expressed in human T47D cells assessed as inhibition of promegestone-induced alkaline phosphatase activity; assay type: functional, cell-based
T1 sequence (P06401 whole entry): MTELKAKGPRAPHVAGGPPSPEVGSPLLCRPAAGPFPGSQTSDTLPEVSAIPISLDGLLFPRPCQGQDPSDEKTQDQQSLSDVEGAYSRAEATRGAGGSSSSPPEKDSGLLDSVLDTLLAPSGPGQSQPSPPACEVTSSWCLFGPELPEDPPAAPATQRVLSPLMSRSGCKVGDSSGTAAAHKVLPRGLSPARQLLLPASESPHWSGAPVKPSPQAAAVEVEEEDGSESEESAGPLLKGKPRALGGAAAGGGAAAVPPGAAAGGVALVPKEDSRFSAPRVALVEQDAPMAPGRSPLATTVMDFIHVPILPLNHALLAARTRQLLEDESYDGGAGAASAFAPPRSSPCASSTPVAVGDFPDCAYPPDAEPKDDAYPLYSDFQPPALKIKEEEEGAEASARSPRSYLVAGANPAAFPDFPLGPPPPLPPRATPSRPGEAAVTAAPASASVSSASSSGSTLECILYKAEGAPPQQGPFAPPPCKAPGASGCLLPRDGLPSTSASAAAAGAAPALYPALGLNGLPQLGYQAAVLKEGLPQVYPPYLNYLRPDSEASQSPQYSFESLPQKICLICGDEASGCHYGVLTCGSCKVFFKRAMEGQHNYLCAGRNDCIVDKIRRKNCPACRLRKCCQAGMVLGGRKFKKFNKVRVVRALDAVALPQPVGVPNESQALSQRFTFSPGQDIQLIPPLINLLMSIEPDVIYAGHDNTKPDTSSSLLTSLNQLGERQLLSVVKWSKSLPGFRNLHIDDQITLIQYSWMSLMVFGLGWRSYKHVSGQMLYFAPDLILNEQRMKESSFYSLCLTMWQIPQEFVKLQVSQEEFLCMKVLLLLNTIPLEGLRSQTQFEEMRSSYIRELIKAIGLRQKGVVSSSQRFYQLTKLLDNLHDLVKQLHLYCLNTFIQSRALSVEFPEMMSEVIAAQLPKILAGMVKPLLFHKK

Glucocorticoid receptor = biological target: T2, Glucocorticoid receptor (Homo sapiens, UniProt P04150); experiment: Antagonist activity at glucocorticoid receptor expressed in A549 cells assessed as inhibition of corticoid-induced gene transcription by luciferase reporter gene assay; assay type: functional, cell-based
T2 sequence (P04150 whole entry): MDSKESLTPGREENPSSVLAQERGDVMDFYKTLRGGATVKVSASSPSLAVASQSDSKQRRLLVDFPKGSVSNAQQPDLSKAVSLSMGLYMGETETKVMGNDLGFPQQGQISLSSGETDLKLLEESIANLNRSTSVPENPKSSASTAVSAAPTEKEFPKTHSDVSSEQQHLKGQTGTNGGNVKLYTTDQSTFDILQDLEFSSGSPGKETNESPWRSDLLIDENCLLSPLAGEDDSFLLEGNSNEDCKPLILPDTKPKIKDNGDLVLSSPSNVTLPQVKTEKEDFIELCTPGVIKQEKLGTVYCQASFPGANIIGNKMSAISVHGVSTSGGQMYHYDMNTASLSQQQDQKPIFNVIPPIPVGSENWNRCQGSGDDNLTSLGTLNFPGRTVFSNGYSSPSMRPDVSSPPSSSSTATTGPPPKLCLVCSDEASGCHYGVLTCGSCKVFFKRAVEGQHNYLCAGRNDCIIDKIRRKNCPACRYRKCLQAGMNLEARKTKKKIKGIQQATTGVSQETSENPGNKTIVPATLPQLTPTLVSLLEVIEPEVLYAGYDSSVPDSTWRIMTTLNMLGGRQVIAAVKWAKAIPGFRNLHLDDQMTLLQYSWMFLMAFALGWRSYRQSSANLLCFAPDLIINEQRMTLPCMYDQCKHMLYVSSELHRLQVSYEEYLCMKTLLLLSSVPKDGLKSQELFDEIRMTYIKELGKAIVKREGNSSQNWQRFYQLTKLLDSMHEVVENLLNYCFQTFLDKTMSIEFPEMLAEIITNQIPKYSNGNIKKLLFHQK

Homo sapiens = species on record: Homo sapiens; experiment: Ratio of IC50 for glucocorticoid receptor to IC50 for progesterone receptor

IC50 (Progesterone receptor) [nM] | IC50 (Glucocorticoid receptor) [nM] | Ratio IC50 (Homo sapiens) | Structure (SMILES)
82 | 14000 | 171 | C=C1OC=N[C@]12CC[C@H]1[C@@H]3CCC4=CC(=O)CCC4=C3[C@@H](c3ccc(C(C)=O)cc3)C[C@@]12C
0.34 | 210 | 620 | C=C1OC(CC)=N[C@]12CC[C@H]1[C@@H]3CCC4=CC(=O)CCC4=C3[C@@H](c3ccc(C(C)=O)cc3)C[C@@]12C
1 | > 10000 | > 10000 | C=C1OC(CC)=N[C@]12CC[C@H]1[C@@H]3CCC4=CC(=O)CCC4=C3[C@@H](c3ccc(OC)c(F)c3)C[C@@]12C
0.59 | 460 | 780 | C=C1OC(C)=N[C@]12CC[C@H]1[C@@H]3CCC4=CC(=O)CCC4=C3[C@@H](c3ccc(C(C)=O)cc3)C[C@@]12C
0.63 | 82 | 130 | C=C1OC(C)=N[C@]12CC[C@H]1[C@@H]3CCC4=CC(=O)CCC4=C3[C@@H](c3ccc(N(C)C)cc3)C[C@@]12C
4.6 | 660 | 140 | C=C1OC(C)=N[C@]12CC[C@H]1[C@@H]3CCC4=CC(=O)CCC4=C3[C@@H](c3ccc(OC)c(F)c3)C[C@@]12C
18 | 540 | 30 | C=C1OC=N[C@]12CC[C@H]1[C@@H]3CCC4=CC(=O)CCC4=C3[C@@H](c3ccc(N(C)C)cc3)C[C@@]12C

Structure (SMILES) | IC50 (Progesterone receptor) [nM] | IC50 (Glucocorticoid receptor) [nM] | Ratio IC50 (Homo sapiens)
C=C1OC(CC)=N[C@]12CC[C@H]1[C@@H]3CCC4=CC(=O)CCC4=C3[C@@H](c3ccc(N(C)C)cc3)C[C@@]12C | 0.98 | 23 | 24

Reference: ChEMBL document CHEMBL1140481, “Synthesis and identification of novel 11beta-aryl-4',5'-dihydrospiro[estra-4,9-diene-17beta,4'-oxazole] analogs with dissociated antiprogesterone activities” (Bioorg Med Chem Lett, 2007)
